Source: article PMC5940854, “Nitrothiophene carboxamides, a novel narrow spectrum antibacterial series: Mechanism of action and Efficacy” (Scientific Reports, 2018)
Values after ≈ are worked out from the molar mass of the structure shown.

Tests used:
[1] = test system: wild-type E. coli CGSC#7636 (BW25113); test: MIC, wild-type E. coli; assay type: cell-based; conditions: for MIC: Escherichia coli, BW25113, E. coli WT BW25113, read-out: MIC WT
Procedure: The inoculum used for all the experiments is derived from a single seed lot that is maintained as glycerol stocks at −80 °C and are sub cultured on LB plate for isolated colonies. Single colony of each strain is grown in M9 medium. All test compound stocks and dilutions are prepared in DMSO. Serial two-fold dilutions of compounds are prepared separately, with the concentrations ranging from 2 mg/mL to 0.015 mg/mL. To 150 µl (3–7 × 10^5 CFU/ml) of bacterial culture in 96 well microtitre plates, 3 μL compound from each of the dilutions is added to respective wells to obtain final concentrations ranging from 40 µg/mL to 0.3 µg/mL of the test compounds. Media control, culture control and appropriate reference drug controls are included. […] Growth is monitored by checking absorbance at 600 nm (A600). […] The samples from MIC and above concentrations are plated for MBC (Minimum Bactericidal Concentration). The samples are diluted 1:10 and plated on LB agar plates. […] The killing kinetics is determined by enumerating survivors at various time points following compound exposure. E. coli cells (~10^7 CFU/ml; A600 of 0.1) are treated with various concentrations (40 µg/mL to 0.3 µg/mL) of compounds in a 96-well microtitre plate. At various time intervals (0 to 8 h), 30 μl volumes of treated cultures are serially diluted and plated on LB agar plates. […] Data is expressed as the log10 CFU for each drug treatment.

NfsA = molecular target: T1, NfsA (Escherichia coli, UniProt P17117); test: Nitroreductase activity assay, NfsA; assay type: biochemical, E. coli; conditions: 20 μM compound, 40 μM NADPH, 10 nM NfsA; slope of initial velocity
T1 construct: His-tag; made in house; host or cells: E. coli BL21(DE3), pET28a (pET-nfsA)
Procedure: Enzyme reducing each of the substrates are measured by monitoring the concomitant oxidation of NADPH by NfsA and NADH by NfsB in a fluorescence based assay. The reduction in fluorescence due to the NADH oxidation (excitation 350 nm, emission 460 nm) and NADPH oxidation (excitation 340 nm, emission 485 nm) is recorded using a TECAN Infinite M200Pro spectrophotometer, in half area solid black microtiter plates. This change in fluorescence directly corelates to the reduction of the nitro-compounds in the reaction. The NfsA assays is performed by initiating the reactions with 40 μM NADPH and 10 nM NfsA in 50 mM Tris-HCl (pH 7.4), 5 mM EDTA against 20 μM substrate (5 μl of compounds/substrate dissolved in 100% DMSO) in a total reaction volume of 100 μl at 25 °C. Similarly, the NfsB assay is also performed by initiating the reactions with 40 μM NADH and 70 nM NfsB in 50 mM Tris-HCl (pH 7.4), 5 mM EDTA against 20 μM substrate in a total reaction volume of 100 μl. […] All reactions are performed in replicates of two or more and the fluorescence measurements are made at 10 second intervals for 5–10 minutes.
Low solubility of the compounds/substrates under the NfsA and NfsB assay conditions precluded determination of their Km. […] The relative fluorescence units (RFU) obtained due to NADPH (excitation 340 nm, emission 485 nm) or NADH (excitation 350 nm, emission 460 nm) oxidation of the first 90 sec reaction is used to compute the slopes using linear regression analysis on GraphPad Prism. Appropriate blank reactions are included to account for background fluorescence/quenching from each of the components such as DMSO, the compound itself and auto-oxidation of NADPH or NADH. Activity of NfsB with a known substrate such as nitrofurantoin is used as a benchmark to plot the relative activities with all the test compounds.

[2] = test system: E. coli clinical isolates; test: MIC on panel of E. coli clinical isolates; assay type: cell-based

T1 sequence (P17117 whole entry): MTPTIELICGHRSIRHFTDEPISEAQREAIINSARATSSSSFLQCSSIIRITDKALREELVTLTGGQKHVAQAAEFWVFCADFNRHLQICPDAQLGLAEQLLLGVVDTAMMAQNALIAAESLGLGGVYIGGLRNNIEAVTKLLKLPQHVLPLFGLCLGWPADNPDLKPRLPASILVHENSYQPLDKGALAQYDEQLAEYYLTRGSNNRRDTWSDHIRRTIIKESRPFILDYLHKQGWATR

For `Cc1sc(NC(=O)c2ccc([N+](=O)[O-])s2)nc1-c1ccccc1` [compound 7, N-(5-Methyl-4-phenylthiazol-2-yl)-5-nitrothiophene-2-carboxamide], the “MIC WT” value ([1]; E. coli WT BW25113) was >40 µg/mL, the MIC [1] was > 40 µg/mL and the “NfsA activity (rate of compound conversion)” value (NfsA) was 0.64 µM/min.
`O=C1CN(/N=C/c2ccc([N+](=O)[O-])o2)C(=O)N1` [nitrofurantoin, reference compound] was tested, and the MIC [1] was 2.5 µg/mL (≈ 10.5 µM), the “MIC Range” value ([2]; 75 E.coli clinical isolates) was 5 to 160 µg/mL and the MIC50 ([2]; Escherichia coli, 75 E.coli clinical isolates, 50% clinical isolates) was 20 µg/mL (≈ 84 µM). The MIC90 ([2]; Escherichia coli, 75 E.coli clinical isolates, 90% clinical isolates) was 80 µg/mL (≈ 336 µM), the MIC ([2]; strain SEC001) was 80 µg/mL (≈ 336 µM) and the MIC ([2]; strain SEC002) was 20 µg/mL (≈ 84 µM). For the same molecule, the MIC ([2]; strain SEC003) was 40 µg/mL (≈ 168 µM), the MIC ([2]; strain SEC004) was 80 µg/mL (≈ 336 µM) and the MIC ([2]; strain SEC005) was 40 µg/mL (≈ 168 µM). For the same molecule, the MIC ([2]; strain SEC006) was 20 µg/mL (≈ 84 µM), the MIC ([2]; strain SEC007) was 40 µg/mL (≈ 168 µM) and the MIC ([2]; strain SEC008) was 80 µg/mL (≈ 336 µM). It also gave an MIC ([2]; strain SEC011) of 40 µg/mL (≈ 168 µM), an MIC ([2]; strain SEC012) of 20 µg/mL (≈ 84 µM) and an MIC ([2]; strain SEC013) of 80 µg/mL (≈ 336 µM). The MIC ([2]; strain SEC014) was 20 µg/mL (≈ 84 µM), the MIC ([2]; strain SEC015) was 20 µg/mL (≈ 84 µM) and the MIC ([2]; strain SEC016) was 40 µg/mL (≈ 168 µM). For the same molecule, the MIC ([2]; strain SEC017) was 20 µg/mL (≈ 84 µM), the MIC ([2]; strain SEC018) was 20 µg/mL (≈ 84 µM) and the MIC ([2]; strain SEC019) was 40 µg/mL (≈ 168 µM). It also gave an MIC ([2]; strain SEC020) of 160 µg/mL (≈ 672 µM), an MIC ([2]; strain SEC021) of 20 µg/mL (≈ 84 µM) and an MIC ([2]; strain SEC022) of 20 µg/mL (≈ 84 µM). The MIC ([2]; strain SEC023) was 80 µg/mL (≈ 336 µM), the MIC ([2]; strain SEC024) was 20 µg/mL (≈ 84 µM) and the MIC ([2]; strain SEC025) was 40 µg/mL (≈ 168 µM). It also gave an MIC ([2]; strain SEC026) of 20 µg/mL (≈ 84 µM), an MIC ([2]; strain SEC028) of 5 µg/mL (≈ 21 µM) and an MIC ([2]; strain SEC029) of 20 µg/mL (≈ 84 µM). For the same molecule, the MIC ([2]; strain SEC031) was 20 µg/mL (≈ 84 µM), the MIC ([2]; strain SEC032) was 20 µg/mL (≈ 84 µM) and the MIC ([2]; strain SEC033) was 20 µg/mL (≈ 84 µM). The MIC ([2]; strain SEC034) was 20 µg/mL (≈ 84 µM), the MIC ([2]; strain SEC035) was 40 µg/mL (≈ 168 µM) and the MIC ([2]; strain SEC036) was 40 µg/mL (≈ 168 µM). For the same molecule, the MIC ([2]; strain SEC037) was 20 µg/mL (≈ 84 µM), the MIC ([2]; strain SEC038) was 20 µg/mL (≈ 84 µM) and the MIC ([2]; strain SEC039) was 20 µg/mL (≈ 84 µM). For the same molecule, the MIC ([2]; strain SEC040) was 40 µg/mL (≈ 168 µM), the MIC ([2]; strain SEC041) was 20 µg/mL (≈ 84 µM) and the MIC ([2]; strain SEC042) was 10 µg/mL (≈ 42 µM). It also gave an MIC ([2]; strain SEC043) of 20 µg/mL (≈ 84 µM), an MIC ([2]; strain SEC044) of 80 µg/mL (≈ 336 µM) and an MIC ([2]; strain SEC045) of 20 µg/mL (≈ 84 µM). The MIC ([2]; strain SEC046) was 20 µg/mL (≈ 84 µM), the MIC ([2]; strain SEC047) was 40 µg/mL (≈ 168 µM) and the MIC ([2]; strain SEC048) was 40 µg/mL (≈ 168 µM). It also gave an MIC ([2]; strain SEC049) of 40 µg/mL (≈ 168 µM), an MIC ([2]; strain SEC050) of 20 µg/mL (≈ 84 µM) and an MIC ([2]; strain SEC051) of 40 µg/mL (≈ 168 µM). It also gave an MIC ([2]; strain SEC052) of 160 µg/mL (≈ 672 µM), an MIC ([2]; strain SEC053) of 40 µg/mL (≈ 168 µM) and an MIC ([2]; strain SEC054) of 20 µg/mL (≈ 84 µM). It also gave an MIC ([2]; strain SEC055) of 20 µg/mL (≈ 84 µM), an MIC ([2]; strain SEC057) of 40 µg/mL (≈ 168 µM) and an MIC ([2]; strain SEC058) of 80 µg/mL (≈ 336 µM). For the same molecule, the MIC ([2]; strain SEC059) was 20 µg/mL (≈ 84 µM), the MIC ([2]; strain SEC060) was 20 µg/mL (≈ 84 µM) and the MIC ([2]; strain SEC061) was 40 µg/mL (≈ 168 µM). It also gave an MIC ([2]; strain SEC062) of 20 µg/mL (≈ 84 µM), an MIC ([2]; strain SEC063) of 40 µg/mL (≈ 168 µM) and an MIC ([2]; strain SEC064) of 40 µg/mL (≈ 168 µM). It also gave an MIC ([2]; strain SEC065) of 20 µg/mL (≈ 84 µM), an MIC ([2]; strain SEC067) of 20 µg/mL (≈ 84 µM) and an MIC ([2]; strain SEC068) of 20 µg/mL (≈ 84 µM). The MIC ([2]; strain SEC069) was 20 µg/mL (≈ 84 µM), the MIC ([2]; strain SEC070) was 20 µg/mL (≈ 84 µM) and the MIC ([2]; strain SEC071) was 20 µg/mL (≈ 84 µM). For the same molecule, the MIC ([2]; strain SEC072) was 20 µg/mL (≈ 84 µM), the MIC ([2]; strain SEC073) was 40 µg/mL (≈ 168 µM) and the MIC ([2]; strain SEC074) was 40 µg/mL (≈ 168 µM). For the same molecule, the MIC ([2]; strain SEC075) was 10 µg/mL (≈ 42 µM), the MIC ([2]; strain SEC076) was 20 µg/mL (≈ 84 µM) and the MIC ([2]; strain SEC077) was 80 µg/mL (≈ 336 µM). For the same molecule, the MIC ([2]; strain SEC078) was 80 µg/mL (≈ 336 µM), the MIC ([2]; strain SEC079) was 20 µg/mL (≈ 84 µM) and the MIC ([2]; strain SEC080) was 40 µg/mL (≈ 168 µM). For the same molecule, the “NfsA activity (rate of compound conversion)” value (NfsA) was 3.58 µM/min.
